This note sets out measurements from patent publication US20030195170A1, “Novel polymorphs and pseudopolymorphs of risedronate sodium” (priority 2002, published 2003).

Common to all, as to assay type: physicochemical
Data set [1] is described as follows: Physical stability of crystal forms at high relative humidity (one week storage). From the text: X-ray diffraction data described herein was obtained by the powder diffraction method. X-Ray powder diffraction data were obtained using methods known in the art with a SCINTAG powder X-Ray diffractometer model X'TRA equipped with a solid state detector. Copper radiation of 1.5418 Å was used. A round aluminum sample holder with a round zero background quartz plate, with cavity of 25 mm×0.5 mm.
Thermogravimetric analysis (TGA) is a technique of thermal analysis well known in the art and measures the change in weight of a sample as a function of temperature. The technique is particularly well suited for measurement of, for example, decomposition and desolvation. TGA results reported herein were obtained using a Mettler TG50. Sample size was between about 6 and about 15 mg. Samples were analyzed at a heating rate of 10° C./min from 25° C. to 250 C. The oven was purged with nitrogen gas at a flow rate of 40 ml/min. Standard alumina crucibles covered by lids with one hole were used.
(§1) The stability of crystalline forms of risedronate sodium against transformation to form A is measured by exposing a sample to an atmosphere having a percent relative humidity (RH or %RH) of at least about 50% at a temperature greater than room temperature for a period of time. It is convenient to evaluate the stability of a crystalline form of risedronate sodium against transformation to form A by exposing a sample to an atmosphere having RH of about 75% at a temperature of 40° C. for a period of at least 3 months. The experience of the skilled artisan teaches that a pharmaceutical that is stable under these conditions will be stable for at least 2 years at room temperature.

A short description of data set [2]: Stability test of risedronate tablets at 40° C., 75% RH (crystal form by X-Ray powder diffraction). Particulars: 5 months, stressed conditions of 40° C. and 75% RH. The text has this:
The crystal form (detected from X-Ray powder diffraction data) of Risedronate active ingredient in the tablet are shown in the following table.

A short description of data set [3]: Stability of form B against transformation to form A at 40° C. / 75% RH. The method, then:
X-ray diffraction analysis can be used to detect and quantify one crystalline form of risedronate sodium in another.
as §1

The nature of data set [4]: Physical stability of crystal forms at high relative humidity (one week storage). The following applies: 80%-100% RH at room temperature for at least one week; 'not substantially' = not more than about 20%.
Where [5] appears, read: relative humidity 80%, one week storage, listed as D (MS-273), monosodium salt.

On to `O=P([O-])(O)C(O)(Cc1cccnc1)P(=O)(O)O.[Na+]` [Form A, 1-hydroxy-2(3-pyridinyl)ethylidene bis phosphonic acid monosodium salt, reference compound], for which the “TGA Weight Loss (%)” value in data set [1] (relative humidity 80%, one week storage, listed as A (LB-91), monosodium salt) is listed as 13.6%.
As for `O=P([O-])(O)C(O)(Cc1cccnc1)P(=O)(O)O.[Na+]` [Form B, 1-hydroxy-2(3-pyridinyl)ethylidene bis phosphonic acid monosodium salt], the “Conversion to form A hemipentahydrate” value is recorded as “does not substantially convert” in data set [1] (75% to 100% RH for one week or more, 'not substantially' = not more than about 20%); “does not substantially convert” in data set [3] (storage at 40° C. and 75% RH for 6 months, 'not substantially' = not more than about 20%). Also, in data set [1] (relative humidity 80%, one week storage, listed as B (LB-89), monosodium salt), the “TGA Weight Loss (%)” value is 6.5%. In data set [2], the “Stability of form B in tablets” value is reported as “stable”. Besides, in data set [3] (RH of 75% at 40° C. for at least three months), the “Part of form B that transforms to form A” value is listed as “less than 20%”.
Regarding `O=P([O-])(O)C(O)(Cc1cccnc1)P(=O)(O)O.[Na+]` [Form C, 1-hydroxy-2(3-pyridinyl)ethylidene bis phosphonic acid monosodium salt], in data set [1] (relative humidity 80%, one week storage, listed as C (LB-87), monosodium salt), the “TGA Weight Loss (%)” value was found to be 16.0%. In addition, the Resulting form entry in data set [1] (relative humidity 80%, one week storage, listed as form C, monosodium salt) is “a mixture of form C and form H”. The “Conversion to form A” value in data set [4] is reported as “does not substantially convert”.
As for `O=P([O-])(O)C(O)(Cc1cccnc1)P(=O)(O)O.[Na+]` [Form D, 1-hydroxy-2(3-pyridinyl)ethylidene bis phosphonic acid monosodium salt], the Resulting form entry in data set [1] (setting [5]) is “D > B”; in data set [1] (relative humidity 80%, one week storage, listed as form D, monosodium salt) it was “a mixture of form D and form B”; in data set [1] (relative humidity 80-100%, one week storage, monosodium salt), “form B”. The “TGA Weight Loss (%)” value in data set [1] (setting [5]) worked out at 1.1%.
Consider `O=P([O-])(O)C(O)(Cc1cccnc1)P(=O)(O)O.[Na+]` [Form E, 1-hydroxy-2(3-pyridinyl)ethylidene bis phosphonic acid monosodium salt], for which the “TGA Weight Loss (%)” value in data set [1] (relative humidity 80%, one week storage, listed as E (MS-277), monosodium salt) turned out to be 14.0%. Besides, in data set [1] (relative humidity 80%, one week storage, listed as form E, monosodium salt), the Resulting form result is “form A with a small quantity of form D”.
As to `O=P([O-])(O)C(O)(Cc1cccnc1)P(=O)(O)O.[Na+]` [Form F, 1-hydroxy-2(3-pyridinyl)ethylidene bis phosphonic acid monosodium salt], the “TGA Weight Loss (%)” value is listed as 4-6% in data set [1] (relative humidity 20-60%, one week storage) and 11.3-12.3% in data set [1] (relative humidity 80-100%, one week storage). In addition, the Resulting form result in data set [1] (relative humidity 80%, one week storage, listed as form F, monosodium salt) is listed as “a mixture of form BB”; in data set [1] (relative humidity 80-100%, one week storage, listed as F (LB-104 160 C. 8 hr), monosodium salt), “BB > A”; in data set [1] (relative humidity 80-100%, one week storage, listed as form F, monosodium salt) it was “form BB”; in data set [1] (relative humidity 100%, one week storage, listed as form F, monosodium salt) it was “form BB”. The “Rearrangement to the hemipentahydrate form” value in data set [1] (up to 100% relative humidity, one week storage) was “does not substantially rearrange”.
With `O=P([O-])(O)C(O)(Cc1cccnc1)P(=O)(O)O.[Na+]` [Form G, 1-hydroxy-2(3-pyridinyl)ethylidene bis phosphonic acid monosodium salt], the “TGA Weight Loss (%)” value in data set [1] (relative humidity 20-80%, one week storage) was 9.4-10.2%; in data set [1] (relative humidity 100%, one week storage), 12.6%. In addition, the Resulting form result in data set [1] (relative humidity 100%, one week storage, listed as G (MS-257 160 C. 8 hr), monosodium salt) was “G + A”; in data set [1] (relative humidity 100%, one week storage, listed as form G, monosodium salt) it was “a mixture of form G and form A”.
